IC50 data for 27 molecules are collected here from patent publication US11098063B2, “Diazabicyclic substituted imidazopyrimidines and their use for the treatment of breathing disorders” (Bayer Aktiengesellschaft, priority 2017, dated 2021).

For orientation: IC50 means the concentration that gives 50% inhibition.

For one assay, the target named is human TASK-1 (Homo sapiens (Human), UniProt O14649). Nature of the assay: Inhibition of recombinant TASK-1 in stably transfected CHO cells (voltage-sensitive dye, KCl depolarization). The assay is classed as cell-based. The settings on record: depolarization by 40 mM potassium chloride. Put shortly: (§1)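 Stably transfected CHO cells loaded with a voltage-sensitive membrane-potential dye were depolarized with 40 mM KCl in the presence of compound. IC50 is the concentration blocking half of the KCl-induced depolarization.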
Chain of human TASK-1 (O14649 whole entry): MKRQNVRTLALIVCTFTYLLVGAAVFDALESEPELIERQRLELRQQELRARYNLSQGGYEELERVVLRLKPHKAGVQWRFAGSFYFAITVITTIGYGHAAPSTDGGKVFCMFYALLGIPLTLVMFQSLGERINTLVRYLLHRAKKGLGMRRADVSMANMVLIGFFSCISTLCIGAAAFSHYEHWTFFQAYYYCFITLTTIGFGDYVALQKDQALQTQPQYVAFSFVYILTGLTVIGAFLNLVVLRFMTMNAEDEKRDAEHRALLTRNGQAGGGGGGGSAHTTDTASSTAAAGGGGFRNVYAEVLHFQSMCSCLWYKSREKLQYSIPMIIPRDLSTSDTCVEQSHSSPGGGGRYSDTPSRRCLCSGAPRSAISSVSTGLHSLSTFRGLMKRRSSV

A further assay addresses human TASK-3 (Homo sapiens (Human), UniProt Q9NPC2). As to the kind of experiment: Inhibition of recombinant TASK-3 in stably transfected CHO cells (voltage-sensitive dye, KCl depolarization). The assay is classed as cell-based. The settings on record: depolarization by 40 mM potassium chloride. A digest of the protocol: as §1

Chain of human TASK-3 (Q9NPC2 whole entry): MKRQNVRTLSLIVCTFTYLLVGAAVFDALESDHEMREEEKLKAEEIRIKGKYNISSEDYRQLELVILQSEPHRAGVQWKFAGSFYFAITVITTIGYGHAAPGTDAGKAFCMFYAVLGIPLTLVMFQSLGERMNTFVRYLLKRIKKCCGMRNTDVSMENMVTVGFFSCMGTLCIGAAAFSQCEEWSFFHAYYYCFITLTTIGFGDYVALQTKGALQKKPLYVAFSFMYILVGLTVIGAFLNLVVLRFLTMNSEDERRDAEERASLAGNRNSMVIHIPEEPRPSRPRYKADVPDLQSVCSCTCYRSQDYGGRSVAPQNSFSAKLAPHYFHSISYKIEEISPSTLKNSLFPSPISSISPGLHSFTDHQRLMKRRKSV

Consider `CN(C(=O)N1C2CCC1CN(Cc1c(-c3ccc(Cl)cc3)nc3ncccn13)C2)c1ccccc1` [Example 108, 3-{[2-(4-chlorophenyl)imidazo[1,2-a]pyrimidin-3-yl]methyl}-N-methyl-N-phenyl-3,8-diazabicyclo[3.2.1]octane-8-carboxamide], for which the IC50 at human TASK-1 was determined as 7000 nM; at human TASK-3, 90 nM.

For the molecule `CCN(CC)C(=O)N1C2CCC1CN(Cc1c(-c3ccc(Cl)cc3)nc3ncccn13)C2` [Example 109, 3-{[2-(4-chlorophenyl)imidazo[1,2-a]pyrimidin-3-yl]methyl}-N,N-diethyl-3,8-diazabicyclo[3.2.1]octane-8-carboxamide], the IC50 at human TASK-1 was 24 nM; on human TASK-3, 1.5 nM.

For the molecule `O=C(N1CCOCC1)N1C2CCC1CN(Cc1c(-c3ccc(Cl)cc3)nc3ncccn13)C2` [Example 110, (3-{[2-(4-chlorophenyl)imidazo[1,2-a]pyrimidin-3-yl]methyl}-3,8-diazabicyclo[3.2.1]oct-8-yl)(morpholin-4-yl)methanone], the IC50 at human TASK-1 is 13000 nM; at human TASK-3 it was 230 nM.

In the case of `CC(C)N(C(=O)N1C2CCC1CN(Cc1c(-c3ccc(Cl)cc3)nc3ncccn13)C2)C(C)C` [Example 111, 3-{[2-(4-chlorophenyl)imidazo[1,2-a]pyrimidin-3-yl]methyl}-N,N-diisopropyl-3,8-diazabicyclo[3.2.1]octane-8-carboxamide], the IC50 worked out at 6300 nM on human TASK-1 and 290 nM at human TASK-3.

Turning to `CCN(C(=O)N1C2CCC1CN(Cc1c(-c3ccc(Cl)cc3)nc3ncccn13)C2)C1CCCCC1` [Example 112, 3-{[2-(4-chlorophenyl)imidazo[1,2-a]pyrimidin-3-yl]methyl}-N-cyclohexyl-N-ethyl-3,8-diazabicyclo[3.2.1]octane-8-carboxamide], the results for the IC50 at human TASK-1 and on human TASK-3 were 15000 nM and 130 nM, respectively.

With `O=C(N1CCCC1)N1C2CCC1CN(Cc1c(-c3ccc(Cl)cc3)nc3ncccn13)C2` [Example 113, (3-{[2-(4-chlorophenyl)imidazo[1,2-a]pyrimidin-3-yl]methyl}-3,8-diazabicyclo[3.2.1]oct-8-yl)(pyrrolidin-1-yl)methanone], the IC50 came out at 1100 nM at human TASK-1 and 62 nM at human TASK-3.

As to `CCN(C(=O)N1C2CCC1CN(Cc1c(-c3ccc(Cl)cc3)nc3ncccn13)C2)c1ccccc1` [Example 114, 3-{[2-(4-chlorophenyl)imidazo[1,2-a]pyrimidin-3-yl]methyl}-N-ethyl-N-phenyl-3,8-diazabicyclo[3.2.1]octane-8-carboxamide], the IC50 came to 6700 nM at human TASK-1 and 140 nM on human TASK-3.

On to `CC(C)N(C)C(=O)N1C2CCC1CN(Cc1c(-c3ccc(Cl)cc3)nc3ncccn13)C2` [Example 115, 3-{[2-(4-chlorophenyl)imidazo[1,2-a]pyrimidin-3-yl]methyl}-N-isopropyl-N-methyl-3,8-diazabicyclo[3.2.1]octane-8-carboxamide], for which the IC50 amounted to 7400 nM on human TASK-1 and 330 nM on human TASK-3.

In the case of `O=C(N1CCCCC1)N1C2CCC1CN(Cc1c(-c3ccc(Cl)cc3)nc3ncccn13)C2` [Example 116, (3-{[2-(4-chlorophenyl)imidazo[1,2-a]pyrimidin-3-yl]methyl}-3,8-diazabicyclo[3.2.1]oct-8-yl)(piperidin-1-yl)methanone], the IC50 at human TASK-1 came to 2700 nM; on human TASK-3 it was 65 nM.

Consider `CC(C)N(C(=O)N1C2CCC1CN(Cc1c(-c3ccc(Cl)cc3)nc3ncccn13)C2)c1ccc(Cl)cc1` [Example 118, N-(4-chlorophenyl)-3-{[2-(4-chlorophenyl)imidazo[1,2-a]pyrimidin-3-yl]methyl}-N-isopropyl-3,8-diazabicyclo[3.2.1]octane-8-carboxamide], for which the figures for the IC50 on human TASK-1 and at human TASK-3 were 19000 nM and 220 nM, respectively.

For `CN(C)C(=O)N1C2CCC1CN(Cc1c(-c3ccc(Cl)cc3)nc3ncccn13)C2` [Example 119, 3-{[2-(4-chlorophenyl)imidazo[1,2-a]pyrimidin-3-yl]methyl}-N,N-dimethyl-3,8-diazabicyclo[3.2.1]octane-8-carboxamide], the IC50 on human TASK-1 came out at 5300 nM; on human TASK-3 it was 210 nM.

Regarding `CCOc1ccc(N(C)C(=O)N2C3CCC2CN(Cc2c(-c4ccc(Cl)cc4)nc4ncccn24)C3)cc1` [Example 120, 3-{[2-(4-chlorophenyl)imidazo[1,2-a]pyrimidin-3-yl]methyl}-N-(4-ethoxyphenyl)-N-methyl-3,8-diazabicyclo[3.2.1]octane-8-carboxamide], the IC50 on human TASK-1 is 15000 nM; at human TASK-3 it was 230 nM.

As to `COc1cccc(CN(C)C(=O)N2C3CCC2CN(Cc2c(-c4ccc(Cl)cc4)nc4ncccn24)C3)c1` [Example 121, 3-{[2-(4-chlorophenyl)imidazo[1,2-a]pyrimidin-3-yl]methyl}-N-(3-methoxybenzyl)-N-methyl-3,8-diazabicyclo[3.2.1]octane-8-carboxamide], the IC50 came to 12000 nM at human TASK-1 and 120 nM on human TASK-3.

For the molecule `O=C(N1CCSCC1)N1C2CCC1CN(Cc1c(-c3ccc(Cl)cc3)nc3ncccn13)C2` [Example 122, (3-{[2-(4-Chlorophenyl)imidazo[1,2-a]pyrimidin-3-yl]methyl}-3,8-diazabicyclo[3.2.1]oct-8-yl)(thiomorpholin-4-yl)methanone], the IC50 at human TASK-1 was found to be 5000 nM; at human TASK-3, 120 nM.

With `COC(=O)N1C2CCC1CN(Cc1c(-c3ccc(Cl)cc3)nc3ncccn13)C2` [Example 123, methyl 3-{[2-(4-chlorophenyl)imidazo[1,2-a]pyrimidin-3-yl]methyl}-3,8-diazabicyclo[3.2.1]octane-8-carboxylate], the half-inhibitory concentration (IC50) on human TASK-1 came out at 14000 nM; on human TASK-3 it was 230 nM.

Turning to `CCOC(=O)N1C2CCC1CN(Cc1c(-c3ccc(Cl)cc3)nc3ncccn13)C2` [Example 124, ethyl 3-{[2-(4-chlorophenyl)imidazo[1,2-a]pyrimidin-3-yl]methyl}-3,8-diazabicyclo[3.2.1]octane-8-carboxylate], the IC50 at human TASK-1 was 790 nM; on human TASK-3 it was 17 nM.

Turning to `O=C(OC1CCCC1)N1C2CCC1CN(Cc1c(-c3ccc(Cl)cc3)nc3ncccn13)C2` [Example 125, cyclopentyl 3-{[2-(4-chlorophenyl)imidazo[1,2-a]pyrimidin-3-yl]methyl}-3,8-diazabicyclo[3.2.1]octane-8-carboxylate], the IC50 on human TASK-1 was 230 nM; at human TASK-3, 27 nM.

`CCCOC(=O)N1C2CCC1CN(Cc1c(-c3ccc(Cl)cc3)nc3ncccn13)C2` [Example 126, propyl 3-{[2-(4-chlorophenyl)imidazo[1,2-a]pyrimidin-3-yl]methyl}-3,8-diazabicyclo[3.2.1]octane-8-carboxylate]: the IC50 on human TASK-1 came to 280 nM; on human TASK-3, 14 nM.

`O=C(OC1CCCCC1)N1C2CCC1CN(Cc1c(-c3ccc(Cl)cc3)nc3ncccn13)C2` [Example 128, cyclohexyl 3-{[2-(4-chlorophenyl)imidazo[1,2-a]pyrimidin-3-yl]methyl}-3,8-diazabicyclo[3.2.1]octane-8-carboxylate]: the IC50 was determined as 2000 nM on human TASK-1 and 110 nM on human TASK-3.

Regarding `CC(C)c1ccc(-c2nc3ncccn3c2CN2CC3CCC(C2)N3C(=O)OC(C)(C)C)cc1` [Example 130, tert-Butyl 3-{[2-(4-isopropylphenyl)imidazo[1,2-a]pyrimidin-3-yl]methyl}-3,8-diazabicyclo[3.2.1]octane-8-carboxylate], the IC50 on human TASK-1 was 1700 nM; at human TASK-3 it was 210 nM.

With `CC(C)c1ccc(-c2nc3ncccn3c2CN2CC3CCC(C2)N3C(=O)c2ncoc2C2CC2)cc1` [Example 131, (5-Cyclopropyl-1,3-oxazol-4-yl)(3-{[2-(4-isopropylphenyl)imidazo[1,2-a]pyrimidin-3-yl]methyl}-3,8-diazabicyclo[3.2.1]oct-8-yl)methanone], the results for the IC50 at human TASK-1 and at human TASK-3 were 3500 nM and 410 nM, respectively.

For `CC(C)(C)OC(=O)N1C2CCC1CN(Cc1c(-c3ccc(C4CC4)cc3)nc3ncccn13)C2` [Example 132, tert-Butyl 3-{[2-(4-cyclopropylphenyl)imidazo[1,2-a]pyrimidin-3-yl]methyl}-3,8-diazabicyclo[3.2.1]octane-8-carboxylate], the IC50 worked out at 1700 nM at human TASK-1 and 410 nM at human TASK-3.

Consider `O=C(c1ccccc1F)N1C2CCC1CN(Cc1c(-c3ccc(C4CC4)cc3)nc3ncccn13)C2` [Example 133, (3-{[2-(4-cyclopropylphenyl)imidazo[1,2-a]pyrimidin-3-yl]methyl}-3,8-diazabicyclo[3.2.1]octan-8-yl)(2-fluorophenyl)methanone], for which the results for the IC50 on human TASK-1 and on human TASK-3 were 1600 nM and 180 nM, respectively.

As to `O=C(C1CCCC1)N1C2CCC1CN(Cc1c(-c3ccc(C4CC4)cc3)nc3ncccn13)C2` [Example 134, cyclopentyl(3-{[2-(4-cyclopropylphenyl)imidazo[1,2-a]pyrimidin-3-yl]methyl}-3,8-diazabicyclo[3.2.1]octan-8-yl)methanone], the IC50 on human TASK-1 is 770 nM; at human TASK-3, 97 nM.

As to `COc1ccc(F)c(C(=O)N2C3CCC2CN(Cc2c(-c4ccc(C5CC5)cc4)nc4ncccn24)C3)n1` [Example 135, (3-{[2-(4-cyclopropylphenyl)imidazo[1,2a]pyrimidin-3-yl]methyl}-3,8-diazabicyclo[3.2.1]octan-8-yl)(3-fluoro-6methoxypyridin-2-yl)methanone], the IC50 on human TASK-1 was 420 nM; at human TASK-3, 34 nM.

On to `COc1ccc(Cl)c(C(=O)N2C3CCC2CN(Cc2c(-c4ccc(C5CC5)cc4)nc4ncccn24)C3)n1` [Example 136, (3-chloro-6-methoxypyridin-2-yl)(3-{[2-(4-cyclopropylphenyl)imidazo[1,2-a]pyrimidin-3-yl]methyl}-3,8-diazabicyclo[3.2.1]octan-8-yl)methanone], for which the IC50 is 320 nM at human TASK-1 and 41 nM at human TASK-3.

`COc1cccc(C(=O)N2C3CCC2CN(Cc2c(-c4ccc(C5CC5)cc4)nc4ncccn24)C3)n1` [Example 137, (3-{[2-(4-cyclopropylphenyl)imidazo[1,2-a]pyrimidin-3-yl]methyl}-3,8-diazabicyclo[3.2.1]octan-8-yl)(6-methoxypyridin-2-yl)methanone]: the results for the IC50 at human TASK-1 and at human TASK-3 were 1100 nM and 180 nM, respectively.
